Results from patent US20210386714A1, “DRUG AND GENE THERAPY TO TREAT HIGH MYOPIA AND OTHER OCULAR DISORDERS WITH ENLARGED EYE GLOBES” (City University of Hong Kong, priority 2020, published 2021).
“Also recorded” adds a separate entry of the source.

Key:
[1] = system: SREBP2 transcriptional targets and Lrp2 in mouse RPE; experiment: mouse RPE explant model, mRNA level by qPCR; type: cell-based
From the text: Eyes were quickly removed from the euthanized mouse and dipped in 70% ethanol for decontamination. Under a dissecting stereomicroscope, connective tissues and muscles were carefully removed. After washing twice in PBS, eyes were immersed in warm culture medium (DMEM:F12+10% FBS). Cornea was cutoff using curved scissors, and lens was pulled out gently with tweezers. Or a serrate was cut off to remove iris and cornea. Retina and optic nerve were carefully and completely removed from eye cups. Four radial cuts were made to enable flat-mounting of eye cups. Each eye cup was transferred onto the center of a floating polycarbonate nucleopore filter membrane (Whatman 110406, 0.2 Micron) placed in 6-well plates with the RPE side facing down. The freshly prepared BF175 stock solution was added to the full culture medium to a final BF175 concentration of 12.5 uM. Half of the medium was replaced with fresh medium on the second day. RPE flat-mounts were harvested at 48 hr in explant and processed for RPE isolation and RNA extraction.
Eyecups without retina and optic nerve tissues were dissected as described in the RPE explant section. Two eyes of the same mouse were pooled in one tube and processed together. RPE were incubated in papain solution (Worthington) for 15 minutes. After washing twice in warm medium, RPE were triturated with 600 μl pipette tip gently to dissociate the pigmented RPE cells from sclera. Resuspended cell solution was transferred to a clean tube and spun down at 600 g.
RNAs were converted to cDNA using PrimeScript RT reagent kit with gDNA Eraser (Takara). qPCR was performed using PowerUp Sybr Green Master Mix (Thermofisher) on QuantStudio 3 Real-Time PCR stems (Applied Biosystems). Gapdh was used as the normalizing control. qPCR primers were listed in Supplementary Information.

[2] = system: eye enlargement induced by Lrp2 knockdown (AAV8-Best1-Lrp2 sh1); experiment: eye globe dimension measurement after subretinal co-injection in Lrp2 knockdown eyes; type: in vivo, mouse; conditions: subretinal co-injection with virus at P0, BF175 12.5 uM
Description: Subretinal injection into P0 (P2 for AAV-RK-viruses) neonate eyes was performed as known in the art. Approximately 0.25 μl of viruses in PBS was injected into the subretinal space using a pulled angled glass pipette controlled by a FemtoJet (Eppendorf). BF175 stock solution (25 mM in DMSO) was first mixed with Tween-20 (Sigma-Aldrich) at a ratio of 5:1 in order to help BF175 dissolve in PBS. Then the mixed solution was added to the virus to a final BF175 concentration of 12.5 uM. The vehicle treatment was virus added with the same amount of DMSO with Tween-20. For animals used for qPCR and RNA-seq, both left and right eyes were injected and used for RNA extraction. For animals used for eye size measurement or other phenotype characterizations, only the right eye of the animal was injected, and the fellow left eye was uninjected for with-in animal controls.
CD-1 mice were sacrificed at indicated ages. Eyes were enucleated, and connective tissues and muscles were carefully removed using tweezers and scissors. Eyes were immersed in PBS in 6 cm petri dish and imaged under a Nikon SMZ800N dissection scope with 2× magnification. ED and AL were measured in imageJ and converted to millimeters. OCT

[3] = mouse RPE explant, 12.5 uM BF175 in culture medium, 48 hr

CC1(C)OB(c2ccc(/C=C/c3cc(Cl)cc(Cl)c3)cc2)OC1(C)C [BF175]
mRNA level of Hmgcr [1, 3]: reduced | mRNA level of Ldlr [1, 3]: reduced | mRNA level of Lrp2 (Lrp2 gene expression in RPE) [1, 3]: significantly increased | Lrp2 sh1-induced increase in eye size [2]: rescued; also recorded: effectively suppressed

Br.CCCc1cc(-c2nc(-c3ccc(C)cc3)cs2)ccn1 [Fatostatin, reference compound]
Lrp2 gene expression in RPE ([1]; RPE cells, Fatostatin, concentration not given): increases
